Results reported in patent US20240252677A1, “ONE-COMPONENT DELIVERY SYSTEM FOR NUCLEIC ACIDS” (The Trustees of the University of Pennsylvania, priority 2021, published 2024).

Columns and labels:
spleen = experiment: In vivo mRNA delivery, IVIS imaging of organs: spleen; parameters: species or system mice; key to Organs with luminescence: spleen: strong: Strong meant the luminescence intensity in that organ was relatively high, compared to other organs; weak: Weak meant the luminescence intensity in that organ was relatively low, compared to other organs; details: Table 17; mice, IVIS, 4-6 h after injection; intensity relative to other organs
Protocol: The exposure time was 1 min.
Tissue luminescence signal was measured on the IVIS imaging system using an exposure time of 60 seconds using medium binning (binning=8) to ensure that the signal obtained was within operative detection range. […] Bioluminescence imaging was performed as described above.
Tissue luminescence signal was measured on the IVIS imaging system using a certain exposure time (60, 30 or 15 seconds) and medium binning (binning=8) to ensure that the signal obtained was within operative detection range.

[1] = Dimensions (size, PDI) of DNPs co-assembled from IAJDs and Luc-mRNA by DLS; type: physicochemical
Method in brief: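 IAJDs (80 mg/mL ethanol stock) rapidly injected into Luc-mRNA (4.0 mg/mL stock) diluted in 10 mM acetate buffer pH 4.0, then vortexed 5 s. Size and polydispersity of resulting DNPs measured by DLS (633 nm laser, 175° detection) at 23 °C.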

[2] = pKa measurements of individual IAJD molecules by titration; type: physicochemical; details: ethanol saturated with NaCl, titrated with 0.1 M aqueous HCl; individual IAJD molecules, titration
Method in brief: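 Compound dissolved at 1.5 mg/mL in NaCl-saturated ethanol and titrated with 0.1 M HCl in 7.5 μL steps, pH read by electrode after each addition. pKa taken from the half-equivalence point.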

[3] = Stability of DNPs by DLS after storage at 5° C.; type: physicochemical; parameters: key to Original size distribution type (DLS curve) / Size distribution type (DLS curve): U: DLS curve showed unimodal size distribution; B: DLS curve showed bimodal size distribution; M: DLS curve showed multimodal size distribution; details: for pH Sample: DNPs: IAJD 4.0 mg/mL + Luc-mRNA 0.1 mg/mL, injection in acetate buffer pH 4.00; for PDI / Size (d, nm) / Original size distribution type (DLS curve): IAJD 4.0 mg/mL + Luc-mRNA 0.1 mg/mL; for PDI / Size (d, nm): acetate buffer; for Original size distribution type (DLS curve): before storage, acetate buffer pH 4.00
Protocol: The stability of the DNPs as assayed by DLS. All the samples are prepared in acetate buffer. The stabilities of the constructs were ranked: Excellent (in bold)—the original sizes and distribution remains almost the same after storage; Good—the original relatively big sizes became smaller or broad size distribution became narrower; Not stable—the original relatively big sizes or broad size distribution remained almost the similar level, or the original relatively small sizes became bigger or narrow size distribution became broader.

[4] = Table 16, DNPs from IAJD 4 mg/mL and Luc-mRNA 0.10 mg/mL by injection in acetate buffer (10 mM, pH 4.0)
[5] = Table 17, DNPs used in vivo, IAJD 4 mg/mL, Luc-mRNA 0.10 mg/mL, acetate pH 4.0

Row | Structure (SMILES) | Organs with luminescence: spleen (spleen) | PDI [1, 4] | Size (d, nm) [1, 4] [nm] | PDI [1, 5] | Size (d, nm) [1, 5] [nm] | pKa [2] | pH Sample [3] | Size distribution type (DLS curve) ([3]; after 62 days at 5° C.) | PDI ([3]; after 62 days at 5° C.) | Size (d, nm) ([3]; after 62 days at 5° C.) [nm] | Original size distribution type (DLS curve) [3] | Size distribution type (DLS curve) ([3]; after 70 days at 5° C.) | PDI ([3]; after 70 days at 5° C.) | Size (d, nm) ([3]; after 70 days at 5° C.) [nm]
1 | CCCCCCCCCCCCOc1cc(COC(=O)CCCN2CCN(CCO)CC2)cc(OCCCCCCCCCCC)c1 [IAJD 124, 3-(Dodecyloxy)-5-(undecyloxy)benzyl 4-(4-(2-hydroxyethyl)piperazin-1-yl)butanoate] | spleen (strong) | 0.280 | 276 | 0.280 | 276 | 6.65 | 4.51 | (B) | 0.240 | 284 | (U) | – | – | –
2 | CCCCCCCCCCCCCCOc1cc(COC(=O)CCCN2CCN(CCO)CC2)cc(OCCCCCCCCCCC)c1 [IAJD 125, 3-(Tetradecyloxy)-5-(undecyloxy)benzyl 4-(4-(2-hydroxyethyl)piperazin-1-yl)butanoate] | spleen (strong) | 0.300 | 255 | 0.300 | 255 | 6.64 | 4.44 | (U) | 0.283 | 276 | (U) | – | – | –
3 | CCCCCCCCCCCCCCCCCOc1cc(COC(=O)CCCN2CCN(C)CC2)cc(OCCCCCCCCCCC)c1 [IAJD 126, 3-(Heptadecyloxy)-5-(undecyloxy)benzyl 4-(4-methylpiperazin-1-yl)butanoate] | spleen (strong) | 0.247 | 158 | 0.247 | 158 | 6.52 | 4.48 | – | – | – | (U) | (U) | 0.239 | 154
4 | CCCCCCCCCCCCCCCCCOc1cc(COC(=O)CCCN2CCN(CCO)CC2)cc(OCCCCCCCCCCC)c1 [IAJD 127, 3-(Heptadecyloxy)-5-(undecyloxy)benzyl 4-(4-(2-hydroxyethyl)piperazin-1-yl)butanoate] | spleen (strong) | 0.270 | 276 | 0.270 | 276 | 6.52 | 4.46 | (B) | 0.248 | 263 | (U) | – | – | –
5 | CCCCCCCCCCCCCCCCCCOc1cc(COC(=O)CCCN2CCN(CCO)CC2)cc(OCCCCCCCCCCC)c1 [IAJD 128, 3-(Octadecyloxy)-5-(undecyloxy)benzyl 4-(4-(2-hydroxyethyl)piperazin-1-yl)butanoate] | spleen (strong) | 0.381 | 291 | 0.381 | 291 | 6.68 | 4.40 | – | – | – | (B) | (B) | 0.459 | 210
